Source: patent US8778970B2, “Benzyl piperidine compound” (Dainippon Sumitomo Pharma Co., Ltd, priority 2009, dated 2014)

Legend:
[1] = target: human serotonin transporter (h-SERT) (Homo sapiens (Human), UniProt P31645); experiment: [3H] citalopram binding screening test for inhibitory effect on human serotonin reuptake; conditions: h-SERT/CHO membrane preparation, [3H] citalopram approx. 2 nM; read-out: h-SERT binding inhibition constant (Ki)
Experimental: Screening Test Using [^3H] Citalopram Binding for Evaluating Inhibitory Effect on Human Serotonin Reuptake
1-1 Cells Used and Preparation of Membrane Preparation
CHO cells expressing a human serotonin transporter (h-SERT) (h-SERT/CHO) were used in the experiment. The cells were cultured in F12 containing 10% FCS, 500 μg/ml Geneticin and 100 U/ml penicillin-100 μg/ml streptomycin (all manufactured by Sigma-Aldrich Corp.) in a 5% CO2 incubator. The cells dissociated and collected therefrom using SERT buffer (50 mM Tris-HCl containing 120 mM NaCl and 5 mM KCl (pH=7.4)) were homogenized using a Teflon (R) homogenizer and then centrifuged (50,000×g, 30 min, 4° C.). The precipitate was resuspended in an appropriate amount of SERT buffer and stored at −80° C. until use. The amount of the protein in the membrane preparation were determined using bovine serum albumin (manufactured by Sigma-Aldrich Corp.) as standards and Dye Reagent Concentrate (manufactured by Bio-Rad Laboratories, Inc.).
1-2 Receptor Binding Experiment
[^3H] citalopram binding was assayed according to the method of Owens et al. [Owens M. J. et al., J. Pharm. […] Specifically, 50 μl of [^3H] citalopram (final concentration: approximately 2 nM) diluted with SERT buffer, 149 μl of the h-SERT/CHO membrane preparation (40 μg/well in terms of the amount of the protein), and 1 μl of a solution of a test drug dissolved in DMSO were added to prepare 200 μl in total of a solution. This solution was reacted at room temperature for 60 minutes and then immediately suction-filtered at a low pressure using a glass fiber filter paper coated with a 0.05% aqueous polyethyleneimine solution. The glass fiber filter paper was washed twice with 250 μl of SERT buffer and then transferred to a glass vial containing 4 ml of ACS-II (manufactured by GE Healthcare (formerly Amersham Biosciences)). Radioactivity remaining on the filter paper was measured using a liquid scintillation counter. The nonspecific binding of [^3H] citalopram was defined as a binding amount in the presence of 1 μM clomipramine.
The smaller numeric value of the h-SERT binding inhibition constant Ki means a higher inhibitory effect on human serotonin reuptake.

[2] = target: human serotonin 1A receptor (h-5-HT1A) (Homo sapiens (Human), UniProt P08908); experiment: [3H] 8-OH-DPAT binding test for affinity for human serotonin 1A receptor; conditions: h-5-HT1A/CHO membrane preparation, [3H] 8-OH-DPAT 0.5 nM; read-out: h-5-HT1A binding inhibition constant (Ki)
Experimental: [^3H] 8-OH-DPAT Binding Test for Evaluating Affinity for Human Serotonin 1A Receptor
2-1 Cells Used and Preparation of Membrane Preparation
CHO cells expressing a human serotonin 1A receptor (h-5-HT1A) (h-5-HT1A/CHO) were used in the experiment. The cells were cultured in F12 containing 10% FCS, 500 μg/ml Geneticin and 100 U/ml penicillin-100 μg/ml streptomycin (all manufactured by Sigma-Aldrich Corp.) in a 5% CO2 incubator. Membrane preparation were prepared according to the method of Yabuuchi et al.^3). Specifically, the cells dissociated and collected therefrom using 50 mM Tris-HCl (pH=7.4) were homogenized using a Teflon® homogenizer and then centrifuged (48,000×g, 20 min, 4° C.). The precipitate was resuspended in an appropriate amount of 50 mM Tris-HCl (pH=7.4) and stored at −80° C. until use. The amount of the protein in the membrane preparation were determined using bovine serum albumin (manufactured by Sigma-Aldrich Corp.) as standards and Dye Reagent Concentrate (manufactured by Bio-Rad Laboratories, Inc.).
2-2 Receptor Binding Experiment
50 μl of [^3H] 8-OH-DPAT (final concentration: 0.5 nM), 1 μl of a test drug solution, and 149 μl of the h-5-HT1A/CHO membrane preparation (25 μg/well in terms of the amount of the protein) were added into a buffer containing 50 mM Tris-HCl (pH=7.4) and 4 mM CaCl2, and 200 μl in total of the reaction solution was used in the assay. The reaction solution was reacted at room temperature for 30 minutes and then immediately suction-filtered at a low pressure using a glass fiber filter paper. The glass fiber filter paper was washed twice with 250 μl of 50 mM Tris-HCl (pH=7.4) and then added to a counting vial containing 4 ml of ACS-II (manufactured by GE Healthcare (formerly Amersham Biosciences)). Receptor binding-derived radioactivity remaining on the filter paper was measured using a liquid scintillation counter. The nonspecific binding was defined as a binding amount in the presence of 10 μM 8-OH-DPAT.
8-OH-DPAT. Moreover, the Kd value was the binding dissociation constant of [^3H] […] The smaller numeric value of the h-5-HT1A binding inhibition constant Ki means higher affinity for human serotonin 1A receptors.

[3] = target: T1, CYP2D6 (Homo sapiens (Human), UniProt P10635); experiment: CYP2D6 inhibition screening test (bufuralol 1'-hydroxylation, pooled human liver microsomes); format: in vitro ADME; conditions: substrate bufuralol, 37° C. 10 min
Experimental: CYP2D6 Inhibition Screening Test
Bufuralol hydrochloride was purchased from Toronto Research Chemicals Inc., and pooled human liver microsomes were purchased from Xenotech, LLC.
Bufuralol hydrochloride was dissolved in DMSO at a concentration of 1.0 mM and then diluted 20-fold with distilled water.
• 1. A 10 mM solution of a test drug in DMSO was serially diluted with DMSO at four 5-fold dilutions to prepare 10, 2, 0.4 and 0.08 mM DMSO solutions. • 2. Each test drug solution of step 1 or DMSO was diluted 160-fold with the human liver microsome solution and dispensed at a concentration of 80 μL/well to a microplate. • 3. 10 μL of the substrate solution and 10 μL of the β-NADPH solution were added to each well of step 2, and the mixture was incubated at 37° C. for 10 min. • 4. The reaction was terminated by the addition of 300 μL of methanol. • 5. The reaction mixture was filtered and analyzed by LC-MS/MS. 3-4 Quantification and Calculation
The amount of 1′-hydroxybufuralol formed was determined by LC-MS/MS, and this value was used as the metabolic activity value of CYP2D6 in each well. The residual activity of each sample-supplemented group was determined by comparison with the activity in the well containing DMSO used as a test drug. IC50 values in CYP2D6 inhibition were determined from the test drug concentrations. […] The larger numeric value of IC50 in CYP2D6 inhibition means weaker CYP2D6 inhibition.

[4] = target: T1, CYP2D6; experiment: Screening test on contribution ratio of CYP2D6 in human liver microsomal metabolism; format: in vitro ADME; conditions: 1 mg/mL human liver microsomes, 1 μM test substance, with/without 4 μM quinidine; values marked *) are reference values due to relative stability
Experimental: Screening Test on Contribution Ratio of CYP2D6 in Human Liver Microsomal Metabolism
0.2 mL of a 50 mM potassium phosphate buffer (pH 7.4) containing 3 mM (final concentration) NADPH (manufactured by Oriental Yeast Co., Ltd.), 1 mg/mL human liver microsomes (manufactured by Xenotech, LLC) and 1 μM test substance was warmed in a water bath at 37° C. for metabolic reaction. After 15- or 30-minute reaction, the reaction was terminated by the addition of a 3-fold volume of methanol with respect to the reaction solution and subsequent stirring. This reaction solution was centrifuged to precipitate proteins. Then, the supernatant was collected and subjected to LC-MS/MS analysis. The results were analyzed as follows:
The test substance was quantified, and time-dependent change in its residual amount was logarithmically plotted. The rate of metabolism was calculated from the slope.
The ratio of the rate of metabolism in the presence of quinidine added at 4 μM (final concentration) to the reaction solution to that in the absence of quinidine was used as the contribution ratio of enzymes other than CYP2D6. The remaining portion was used as the contribution ratio of CYP2D6. Specifically, it was calculated according to the formula: Contribution ratio (%)={1−(Rate of metabolism [in the presence of quinidine]/Rate of metabolism [in the absence of quinidine])}×100 The smaller numeric value of the contribution ratio of CYP2D6 means the small contribution of CYP2D6.

human serotonin transporter (h-SERT), sequence (P31645 whole entry): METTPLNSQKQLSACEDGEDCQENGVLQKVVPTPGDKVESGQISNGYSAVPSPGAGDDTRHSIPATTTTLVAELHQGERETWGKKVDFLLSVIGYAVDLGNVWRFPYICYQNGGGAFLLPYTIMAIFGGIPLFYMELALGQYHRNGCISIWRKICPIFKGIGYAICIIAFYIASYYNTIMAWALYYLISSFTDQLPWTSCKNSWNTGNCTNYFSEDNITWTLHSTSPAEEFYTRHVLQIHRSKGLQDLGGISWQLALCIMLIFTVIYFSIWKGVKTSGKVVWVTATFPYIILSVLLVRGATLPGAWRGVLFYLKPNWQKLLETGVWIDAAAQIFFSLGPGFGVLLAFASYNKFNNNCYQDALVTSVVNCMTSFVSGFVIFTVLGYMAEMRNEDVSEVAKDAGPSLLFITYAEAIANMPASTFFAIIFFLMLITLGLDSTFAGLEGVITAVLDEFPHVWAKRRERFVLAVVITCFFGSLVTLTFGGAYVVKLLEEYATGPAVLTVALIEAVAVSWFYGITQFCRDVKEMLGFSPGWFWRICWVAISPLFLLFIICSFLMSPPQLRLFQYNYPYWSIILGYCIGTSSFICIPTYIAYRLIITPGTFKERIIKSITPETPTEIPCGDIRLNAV
T1 sequence (P10635 whole entry): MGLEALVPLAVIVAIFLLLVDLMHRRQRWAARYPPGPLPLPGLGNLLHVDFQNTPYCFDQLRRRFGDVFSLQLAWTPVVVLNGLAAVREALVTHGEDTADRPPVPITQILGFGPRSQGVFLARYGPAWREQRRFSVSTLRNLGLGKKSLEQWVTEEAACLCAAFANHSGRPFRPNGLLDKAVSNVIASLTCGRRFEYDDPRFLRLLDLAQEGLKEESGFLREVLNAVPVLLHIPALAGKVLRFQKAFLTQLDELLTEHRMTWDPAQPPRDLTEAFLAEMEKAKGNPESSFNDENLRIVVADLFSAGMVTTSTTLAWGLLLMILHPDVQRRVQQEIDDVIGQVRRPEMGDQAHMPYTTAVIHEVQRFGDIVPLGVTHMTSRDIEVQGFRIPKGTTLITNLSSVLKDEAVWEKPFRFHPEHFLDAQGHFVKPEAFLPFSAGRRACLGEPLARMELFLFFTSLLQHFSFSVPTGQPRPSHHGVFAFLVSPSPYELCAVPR
human serotonin 1A receptor (h-5-HT1A), sequence (P08908 whole entry): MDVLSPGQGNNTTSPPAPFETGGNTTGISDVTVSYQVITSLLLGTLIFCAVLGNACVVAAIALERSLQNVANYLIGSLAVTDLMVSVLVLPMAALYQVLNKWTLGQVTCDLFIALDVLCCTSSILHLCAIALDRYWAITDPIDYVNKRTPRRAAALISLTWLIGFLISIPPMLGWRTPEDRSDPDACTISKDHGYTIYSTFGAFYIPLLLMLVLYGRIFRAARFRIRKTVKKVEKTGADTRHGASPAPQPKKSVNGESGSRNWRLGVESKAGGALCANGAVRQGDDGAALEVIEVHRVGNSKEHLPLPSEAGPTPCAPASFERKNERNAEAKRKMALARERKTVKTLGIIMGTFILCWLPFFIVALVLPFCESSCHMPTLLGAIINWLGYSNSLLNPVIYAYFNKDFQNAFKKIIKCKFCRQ

Row | Structure (SMILES) | Ki [1] | Ki [2] | IC50 [3] | CYP2D6 contribution ratio [4]
1 | Oc1cc(CC2CCN(CCc3ccc4c(c3)C(O)CCO4)CC2)ccc1Br (stereo not drawn) [Compound 5-15, 6-{2-[4-(4-Bromo-3-hydroxybenzyl)piperidin-1-yl]ethyl}-3,4-dihydro-2H-chromen-4-ol] | 41 nM | 8.5 nM | 40300 nM | 0*) %
2 | O=c1ccoc2ccc(CCN3CCC(Cc4ccc(Br)c(O)c4)CC3)cc12 [Compound 5-9, 6-{2-[4-(4-Bromo-3-hydroxybenzyl)piperidin-1-yl]ethyl}-4H-chromen-4-one] | 1.7 nM | 0.27 nM | 16800 nM | 46%
3 | O=C1c2cc(CCN3CCC(Cc4ccc(Br)c(O)c4)CC3)ccc2OCC1O (stereo not drawn) [Compound 5-5, 6-{2-[4-(4-Bromo-3-hydroxybenzyl)piperidin-1-yl]ethyl}-3-hydroxy-2,3-dihydro-4H-chromen-4-one] | 11 nM | 1.1 nM | 23000 nM | 24%
4 | Cl.O=c1ccoc2ccc(CCN3CCC(Cc4ccc(Br)c(OCCO)c4)CC3)cc12 [Compound 5-7, 6-(2-{4-[4-Bromo-3-(2-hydroxyethoxy)benzyl]piperidin-1-yl}ethyl)-4H-chromen-4-one hydrochloride] | 3.5 nM | 2.1 nM | 34900 nM | 9.2*) %
5 | COCCOc1cc(CC2CCN(CCc3ccc4c(c3)C(=O)C(O)CO4)CC2)ccc1Br.Cl (stereo not drawn) [Compound 5-3, 6-(2-{4-[4-Bromo-3-(2-methoxyethoxy)benzyl]piperidin-1-yl}ethyl)-3-hydroxy-2,3-dihydro-4H-chromen-4-one hydrochloride] | 2.7 nM | 7.4 nM | 36200 nM | 0*) %
6 | O=C1CCOc2ccc(CCN3CCC(Cc4ccc(Br)c(O)c4)CC3)cc21 [Compound 5-8, 6-{2-[4-(4-Bromo-3-hydroxybenzyl)piperidin-1-yl]ethyl}-2,3-dihydro-4H-chromen-4-one] | 6.5 nM | 1.3 nM | 9900 nM | 98%
